This is an account of results in ChEMBL document CHEMBL1158459, “Discovery of a peroxisome proliferator activated receptor gamma (PPARgamma) modulator with balanced PPARalpha activity for the treatment of type 2 diabetes and dyslipidemia” (J Med Chem, 2009).

Calls of active or inactive are those of the source. No cut-off for these calls is given here.

Data set [1] can be described thus: Cmax in C57BLKS/J-m+/+Leprdb db/db mouse at 3 mg/kg, po once daily for 11 days. To be noted: in vivo. Format: ADME, organism-based. On the set-up: dose 3 mg/kg, route oral.
Data set [2] relates to Mus musculus. Put plainly: Antidiabetic activity in ob/ob mouse assessed as reduction in plasma triglyceride levels at 10 mg/kg, po once daily for 5 days relative to control. On the set-up: scale not given: the % may be the effect or the level left. Format: functional.
Data set [3] relates to Rattus norvegicus. Put plainly: Antidiabetic activity in Zucker fa/fa rat assessed as decrease in triglyceride levels at 1 mg/kg, po once daily for 7 days. Format: functional, organism-based. Also noted: dose 1 mg/kg.
Data set [4] is described as follows: Cmax in C57BLKS/J-m+/+Leprdb db/db mouse at 1 mg/kg, po once daily for 11 days. Type of data set: ADME, organism-based. Also noted: dose 1 mg/kg, route oral. The following applies: in vivo.
Data set [5] has as its target Oxysterols receptor LXR-alpha (Homo sapiens) (UniProt Q13133). Put plainly: Binding affinity to LXRalpha up to 10 uM.
The target in data set [6] is T1, Peroxisome proliferator-activated receptor alpha (Homo sapiens, UniProt Q07869).
T1 sequence (Q07869 whole entry): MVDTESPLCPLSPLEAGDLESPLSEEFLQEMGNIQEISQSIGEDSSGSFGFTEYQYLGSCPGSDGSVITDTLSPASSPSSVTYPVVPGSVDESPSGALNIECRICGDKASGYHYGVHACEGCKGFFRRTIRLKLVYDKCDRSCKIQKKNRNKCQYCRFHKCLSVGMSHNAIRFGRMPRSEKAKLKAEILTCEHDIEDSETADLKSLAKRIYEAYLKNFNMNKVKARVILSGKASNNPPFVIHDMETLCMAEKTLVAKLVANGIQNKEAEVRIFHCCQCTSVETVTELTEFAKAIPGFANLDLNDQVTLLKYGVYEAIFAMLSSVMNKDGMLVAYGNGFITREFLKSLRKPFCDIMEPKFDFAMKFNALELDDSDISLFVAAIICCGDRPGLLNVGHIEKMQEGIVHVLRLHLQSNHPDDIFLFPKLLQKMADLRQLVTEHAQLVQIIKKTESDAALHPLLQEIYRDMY
The experiment in a line: Inhibition of human PPARalpha receptor by scintillation proximity assay. A general note: In a scintillation proximity assay essentially only radioactivity close to the scintillant gives light.

Data set [7] relates to Mus musculus. Put plainly: Antidiabetic activity in C57BLKS/J-m+/+Leprdb db/db mouse assessed as reduction in plasma triglyceride levels at 1 mg/kg, po once daily for 11 days relative to control. Type of data set: functional. Also noted: scale not given: the % may be the effect or the level left.
For data set [8], the target named is Thyroid hormone receptor alpha (Homo sapiens) (UniProt P10827). Put plainly: Binding affinity to TRalpha up to 10 uM.
Thyroid hormone receptor alpha (Homo sapiens), sequence (P10827 whole entry): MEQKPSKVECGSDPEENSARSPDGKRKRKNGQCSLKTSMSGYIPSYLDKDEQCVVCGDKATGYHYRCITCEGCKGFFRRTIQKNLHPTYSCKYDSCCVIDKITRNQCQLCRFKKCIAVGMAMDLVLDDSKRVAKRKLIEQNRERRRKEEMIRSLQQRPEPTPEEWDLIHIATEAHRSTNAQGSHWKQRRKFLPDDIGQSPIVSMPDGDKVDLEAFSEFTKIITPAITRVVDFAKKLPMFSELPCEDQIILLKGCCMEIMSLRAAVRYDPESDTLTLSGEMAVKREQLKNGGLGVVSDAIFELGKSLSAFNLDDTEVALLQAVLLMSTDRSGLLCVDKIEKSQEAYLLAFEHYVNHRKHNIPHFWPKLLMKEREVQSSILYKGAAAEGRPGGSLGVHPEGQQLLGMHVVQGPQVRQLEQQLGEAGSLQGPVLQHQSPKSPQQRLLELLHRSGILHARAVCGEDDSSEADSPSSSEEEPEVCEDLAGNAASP
The subject of data set [9] is Mus musculus. The experiment in a line: Antidiabetic activity in high fat diet-fed streptozotocin-treated mouse assessed as reduction in plasma glucose levels at 30 mg/kg, po once daily for 12 days relative to control. Type of data set: functional. On the set-up: scale not given: the % may be the effect or the level left.
A short description of data set [10]: AUC in Sprague-Dawley rat at 60 mg/kg, po once daily for 14 days. Also noted: dose 60 mg/kg, route oral. Type of data set: ADME, organism-based. To be noted: plasma.
Data set [11] deals with Rattus norvegicus. The experiment in a line: Antidiabetic activity in Zucker fa/fa rat assessed as decrease in free fatty acid levels at 15 mg/kg, po once daily for 7 days. Format: functional, organism-based. Also noted: dose 15 mg/kg.
For data set [12], the target named is Retinoic acid receptor RXR-alpha (Homo sapiens) (UniProt P19793). The experiment in a line: Activity at RXRalpha receptor up to 10 uM by transactivation assay.
Retinoic acid receptor RXR-alpha (Homo sapiens), sequence (P19793 whole entry): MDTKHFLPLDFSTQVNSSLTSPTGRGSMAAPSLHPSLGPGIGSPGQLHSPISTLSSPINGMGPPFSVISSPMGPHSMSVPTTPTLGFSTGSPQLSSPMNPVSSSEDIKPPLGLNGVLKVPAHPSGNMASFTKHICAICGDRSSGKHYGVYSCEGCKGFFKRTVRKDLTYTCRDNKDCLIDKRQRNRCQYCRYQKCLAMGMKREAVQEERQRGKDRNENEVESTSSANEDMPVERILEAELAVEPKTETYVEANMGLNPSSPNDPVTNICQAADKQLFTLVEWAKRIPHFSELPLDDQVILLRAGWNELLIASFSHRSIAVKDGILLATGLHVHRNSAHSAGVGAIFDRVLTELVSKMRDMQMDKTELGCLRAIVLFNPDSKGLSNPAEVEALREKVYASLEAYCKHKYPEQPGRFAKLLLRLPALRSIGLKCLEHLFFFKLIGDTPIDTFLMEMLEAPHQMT
Data set [13] concerns the target T2, Peroxisome proliferator-activated receptor gamma (Homo sapiens, UniProt P37231).
T2 sequence (P37231 whole entry): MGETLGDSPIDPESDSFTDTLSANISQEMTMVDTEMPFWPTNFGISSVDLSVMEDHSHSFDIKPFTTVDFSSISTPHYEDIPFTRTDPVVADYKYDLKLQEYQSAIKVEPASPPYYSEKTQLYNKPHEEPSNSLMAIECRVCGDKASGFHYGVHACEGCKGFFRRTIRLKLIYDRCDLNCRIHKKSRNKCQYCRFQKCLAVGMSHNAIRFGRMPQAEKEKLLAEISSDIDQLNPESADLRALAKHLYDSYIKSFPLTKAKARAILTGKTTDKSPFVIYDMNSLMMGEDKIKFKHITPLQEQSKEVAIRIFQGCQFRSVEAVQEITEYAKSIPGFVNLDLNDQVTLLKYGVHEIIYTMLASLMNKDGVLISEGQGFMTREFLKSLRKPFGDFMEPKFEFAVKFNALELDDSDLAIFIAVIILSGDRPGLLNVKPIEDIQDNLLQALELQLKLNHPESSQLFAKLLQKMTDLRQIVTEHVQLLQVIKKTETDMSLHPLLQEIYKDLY
Description: Agonist activity at human PPARgamma receptor expressed in african green monkey COS1 cells co-transfected with fused yeast Gal4-DBD by transactivation assay

Data set [14] deals with Oxysterols receptor LXR-alpha (Homo sapiens) (UniProt Q13133). The experiment in a line: Activity at LXRalpha receptor up to 10 uM by transactivation assay.
Oxysterols receptor LXR-alpha (Homo sapiens), sequence (Q13133 whole entry): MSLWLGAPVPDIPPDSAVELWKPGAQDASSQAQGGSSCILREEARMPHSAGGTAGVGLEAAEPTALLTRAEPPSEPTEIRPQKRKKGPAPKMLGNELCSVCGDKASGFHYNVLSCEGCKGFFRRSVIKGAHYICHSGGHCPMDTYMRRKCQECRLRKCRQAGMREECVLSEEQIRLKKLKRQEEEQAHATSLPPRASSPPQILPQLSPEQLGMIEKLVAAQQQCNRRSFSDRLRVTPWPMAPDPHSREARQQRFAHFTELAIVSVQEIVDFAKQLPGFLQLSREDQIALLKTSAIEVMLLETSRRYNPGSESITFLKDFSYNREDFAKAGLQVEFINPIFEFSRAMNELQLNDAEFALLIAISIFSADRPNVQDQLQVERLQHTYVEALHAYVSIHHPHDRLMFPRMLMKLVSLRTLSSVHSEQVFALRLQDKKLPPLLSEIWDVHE
Data set [15] relates to Mus musculus. Put plainly: Antidiabetic activity in C57BLKS/J-m+/+Leprdb db/db mouse assessed as reduction in plasma triglyceride levels at 3 mg/kg, po once daily for 11 days relative to control. Format: functional. On the set-up: scale not given: the % may be the effect or the level left.
Data set [16] can be described thus: AUC in C57BLKS/J-m+/+Leprdb db/db mouse at 10 mg/kg, po once daily for 11 days. Format: ADME, organism-based. On the set-up: dose 10 mg/kg, route oral. To be noted: plasma.
The nature of data set [17]: AUC in Beagle dog at 3 mg/kg, po once daily for 14 days. Type of data set: ADME, organism-based, Canis lupus familiaris. To be noted: plasma. Also noted: dose 3 mg/kg, route oral.
The test system of data set [18] is Rattus norvegicus. Put plainly: Toxicity in Sprague-Dawley rat assessed as increase albumin/globulin levels at 60 mg/kg, po once daily for 14 days. Format: organism-based. Also noted: dose 60 mg/kg, route oral. To be noted: in vivo, 336 h.
Data set [19] concerns Rattus norvegicus. The experiment in a line: Toxicity in Sprague-Dawley rat assessed as increase in heart weight at 60 mg/kg, po once daily for 14 days. Format: organism-based. Also noted: dose 60 mg/kg, route oral. To be noted: in vivo, 336 h.
The test system of data set [20] is Syrian golden hamster. The experiment in a line: Antidiabetic activity in Syrian golden hamster assessed as reduction in triglyceride level at 1 mg/kg, po once daily for 9 days relative to control. Type of data set: functional, Mesocricetus auratus. Also noted: scale not given: the % may be the effect or the level left.
The subject of data set [21] is Rattus norvegicus. Put plainly: Antidiabetic activity in Zucker fa/fa rat assessed as decrease in free fatty acid levels at 10 mg/kg, po once daily for 7 days. Type of data set: functional, organism-based. Also noted: dose 10 mg/kg.

For orientation: Cmax means the maximum level reached in the sampled fluid or tissue. One may read the IC50 as the concentration at which inhibition is half-maximal. What is called AUC is the area under the concentration-time curve, a measure of exposure. Usually EC50 stands for the midpoint of the concentration-response curve. With `CC[C@@H](Oc1cccc(Cn2c(C)c(C(=O)c3ccc(Cl)cc3)c3ccc(OC(F)(F)F)cc32)c1)C(=O)O`, the values for the Cmax in [1] and in [4] were 5.4 µM and 1500 nM, respectively. The Activity is reported as 50% in [2]; 75% in [7]; 103% in data set [9]; 85% in data set [15]; 45% in data set [18]; 1% in data set [19]. Moreover, the Activity in data set [20] turned out to be 30.7%. Besides, the outcome in data set [3], in data set [11] and in data set [21] was Active. For the same compound, the result in [5], in data set [8], in [12] and in data set [14] was inactive. Further, the IC50 in data set [6] was 2620 nM. In addition, the AUC at 336 h was determined as 40 µM·h in data set [10] and 21.4 µM·h in [17]. The compound further registered an EC50 in data set [13] of 2 nM. In data set [16], this compound yielded an AUC at 264 h of 9.6 µM·h.
